Here are results for three molecules from patent publication US7553966B2, “Glucocorticoid mimetics, methods of making them, pharmaceutical compositions, and uses thereof” (Boehringer Ingelheim Pharmaceuticals, Inc., priority 2002, dated 2009).

Molecules are shown by their SMILES.

In experiment [1] the target is T1, human glucocorticoid receptor (GR) complex (Homo sapiens, UniProt P04150).
T1 construct: made in house; host or cells: insect expression system (baculovirus lysate)
T1 sequence (P04150 1-777): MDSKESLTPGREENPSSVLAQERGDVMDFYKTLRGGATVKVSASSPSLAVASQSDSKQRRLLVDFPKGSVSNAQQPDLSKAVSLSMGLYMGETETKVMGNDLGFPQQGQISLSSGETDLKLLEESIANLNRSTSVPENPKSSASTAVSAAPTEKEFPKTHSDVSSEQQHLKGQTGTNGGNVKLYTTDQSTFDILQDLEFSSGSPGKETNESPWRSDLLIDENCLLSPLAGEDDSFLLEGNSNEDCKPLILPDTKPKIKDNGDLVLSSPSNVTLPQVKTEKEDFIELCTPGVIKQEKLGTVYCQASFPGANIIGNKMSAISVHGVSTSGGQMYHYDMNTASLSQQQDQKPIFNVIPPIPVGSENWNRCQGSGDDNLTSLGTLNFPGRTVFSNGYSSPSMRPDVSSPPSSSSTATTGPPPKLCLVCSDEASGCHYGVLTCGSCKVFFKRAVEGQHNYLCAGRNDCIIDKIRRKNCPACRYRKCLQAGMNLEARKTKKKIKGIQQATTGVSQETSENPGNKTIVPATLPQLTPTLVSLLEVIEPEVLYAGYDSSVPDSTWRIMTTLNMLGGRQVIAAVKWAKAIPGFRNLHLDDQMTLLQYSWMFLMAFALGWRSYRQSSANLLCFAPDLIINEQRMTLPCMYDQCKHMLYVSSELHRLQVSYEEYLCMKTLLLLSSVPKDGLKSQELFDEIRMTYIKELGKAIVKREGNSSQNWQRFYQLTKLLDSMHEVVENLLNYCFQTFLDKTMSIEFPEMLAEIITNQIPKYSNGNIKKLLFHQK
Briefly: Glucocorticoid Receptor Competitive Binding Assay (fluorescence polarization, TAMRA-labeled dexamethasone probe). The note with it: qualitative statement; competition with TAMRA-labeled dexamethasone. A digest of the protocol: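 Competition with TAMRA-dexamethasone for a human GR complex expressed in insect cells, read by fluorescence polarization. Buffer was 10 mM TES, 50 mM KCl, 20 mM Na2MoO4, 1.5 mM EDTA, 0.04% CHAPS, 10% glycerol, 1 mM DTT, pH 7.4.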
(In general: Polarisation of emitted light reports the rotation of a fluorescent probe.)

The test system of experiment [2] is glucocorticoid receptor. Briefly: Glucocorticoid Receptor Cell Assays (agonist activity in one or more of the above assays). The class given is cell-based. The note with it: qualitative statement; assay not specified.

Take `Cc1cc2c(c(C(C)(C)CC(O)(Cc3ccnc4ccccc34)C(F)(F)F)c1)OCC2` (stereo not drawn) [1,1,1-Trifluoro-4-methyl-4-(5-methyl-2,3-dihydrobenzofuran-7-yl)-2-quinolin-4-ylmethylpentan-2-ol]: the “activity in the GR binding assay” value in experiment [1] is “potent activity”. The “activity as agonists of the glucocorticoid receptor function in one or more of the above assays” value in experiment [2] was “potent agonists”.
On the same counts, the results for `Cc1ccc(F)cc1C(C)(C)CC(O)(Cc1cc2ccccc2[nH]1)C(F)(F)F` (stereo not drawn) [1,1,1-Trifluoro-4-(5-fluoro-2-methylphenyl)-2-(1H-indol-2-ylmethyl)-4-methylpentan-2-ol] are “potent activity” and “potent agonists”.
For `COc1ccc(F)cc1C(C)(C)CC(O)(Cc1cc2ccncc2[nH]1)C(F)(F)F` (stereo not drawn) [1,1,1-Trifluoro-4-(5-fluoro-2-methoxyphenyl)-4-methyl-2-(1H-pyrrolo[2,3-c]pyridin-2-ylmethyl)pentan-2-ol], the “activity in the GR binding assay” value in experiment [1] is “potent activity”. Moreover, in experiment [2], the “activity as agonists of the glucocorticoid receptor function in one or more of the above assays” value is reported as “potent agonists”.
